# Data published in patent US11072588B2, “Barbituric acid derivatives comprising cationic and lipophilic groups” (UNIVERSITETET I TROMSØ—NORGES ARKTISKE UNIVERSITET, priority 2017, dated 2021).
# Columns and labels:
# [1] = test system: S. aureus strain WIS; experiment: MIC, multi-resistant clinical isolate; format: cell-based, Staphylococcus aureus
# Method: (§1) Working solutions of the test derivatives were prepared with up to 100% DMSO and stored at −20° C. If necessary, the solutions were heated to 40-80° C. before testing to facilitate complete dissolution. Double-distilled water was used in all dilutions prepared. […] A microdilution susceptibility test was used for MIC determination according to Clinical and Laboratory Standards Institute, “Methods for Dilution Antimicrobial Sisceptibility Tests for Bacteria That Graw Aerobically”, Approved Standard M07-A9, edition 2012, with modifications as described by Igumnova et al (Bioorg Med Chem, 2016, 24 (22), 5884-5894).
# (§2) Briefly, the bacterial inoculum was adjusted to approximately 2.5-3×10^4 cells/mL in Mueller-Hinton broth (MHB, Difco Laboratories, USA), and incubated in a ratio of 1:1 with test derivatives in polystyrene 96-well flat-bottom microplates (NUNC, Roskilde, Denmark). Positive growth control (without test derivatives) and negative control (without bacteria) were included. The reference antibiotic was oxytetracycline hydrochloride (Sigma Aldrich, Saint Louis, Mo., USA). The microplates were incubated in an EnVision microplate reader (Perkin-Elmer, Turku, Finland) placed in an incubator set to 35° C. for 48 h. The MIC value was defined as the lowest concentration of derivative resulting in no bacterial growth as determined by OD600 measurement. All derivatives were tested in three parallels.
# (§3) The MIC was determined as explained above with some exceptions; working solutions of test derivatives were prepared from concentrated DMSO stocks stored at room temperature, the density of the bacterial inoculum was increased 40× to 1-1.2×10^6 cells/mL, enterococci were incubated in Brain Heart Infusion broth (BHIB, Difco Laboratories, USA), the microplates were incubated for 24 h, and the derivatives were tested in four parallels.
# [2] = test system: S. aureus IHT 99040; experiment: MIC, multi-resistant clinical isolate; format: cell-based, Staphylococcus aureus
# Method: as §1, §2, §3
# [3] = test system: S. aureus N315; experiment: MIC, multi-resistant clinical isolate; format: cell-based, Staphylococcus aureus
# Method: as §1, §2, §3
# [4] = test system: S. aureus strain 85/2082; experiment: MIC, multi-resistant clinical isolate; format: cell-based, Staphylococcus aureus
# Method: as §1, §2, §3
# [5] = test system: S. aureus NCTC 10442; experiment: MIC, multi-resistant clinical isolate; format: cell-based, Staphylococcus aureus
# Method: as §1, §2, §3
# [6] = test system: A. baumanii K44-35; experiment: MIC, multi-resistant clinical isolate; format: cell-based, Acinetobacter baumannii
# Method: as §1, §2, §3
# [7] = test system: A. baumanii K47-42; experiment: MIC, multi-resistant clinical isolate; format: cell-based, Acinetobacter baumannii
# Method: as §1, §2, §3
# [8] = test system: A. baumanii K12-21; experiment: MIC, multi-resistant clinical isolate; format: cell-based, Acinetobacter baumannii
# Method: as §1, §2, §3
# [9] = test system: A. baumanii K63-58; experiment: MIC, multi-resistant clinical isolate; format: cell-based, Acinetobacter baumannii; conditions: A. baumanii K63-58, resistant to colistin
# Method: as §1, §2, §3
# [10] = test system: A. baumanii K55-13; experiment: MIC, multi-resistant clinical isolate; format: cell-based, Acinetobacter baumannii
# Method: as §1, §2, §3
# [11] = test system: panel of 30 multi-resistant clinical isolates of Gram-positive and Gram-negative bacteria; experiment: MIC screening, ranges over the panel of clinical isolates; format: cell-based; conditions: Enterococcus faecium, read-out: MIC values against the Gram-positive isolates of S. aurues and E. faecium
# Method: as §1, §2, §3
# [12] = test system: E. coli 50739822; experiment: MIC, multi-resistant clinical isolate; format: cell-based, Escherichia coli
# Method: as §1, §2, §3
# [13] = test system: E. coli 50676002; experiment: MIC, multi-resistant clinical isolate; format: cell-based, Escherichia coli; conditions: E. coli 50676002
# Method: as §1, §2, §3
# [14] = test system: P. aeruginosa K34-73; experiment: MIC, multi-resistant clinical isolate; format: cell-based, Pseudomonas aeruginosa; conditions: P. aeruginosa K34-73
# Method: as §1, §2, §3
# [15] = test system: P. aeruginosa 50692520; experiment: MIC, multi-resistant clinical isolate; format: cell-based, Pseudomonas aeruginosa
# Method: as §1, §2, §3
# [16] = test system: P. aeruginosa K34-7; experiment: MIC, multi-resistant clinical isolate; format: cell-based, Pseudomonas aeruginosa
# Method: as §1, §2, §3
# [17] = test system: P. aeruginosa 50692172; experiment: MIC, multi-resistant clinical isolate; format: cell-based, Pseudomonas aeruginosa
# Method: as §1, §2, §3
# [18] = test system: P. aeruginosa K44-24; experiment: MIC, multi-resistant clinical isolate; format: cell-based, Pseudomonas aeruginosa
# Method: as §1, §2, §3
# [19] = test system: human metastatic melanoma (A2058, ATCC CRL-11147) cells; experiment: Anti-cancer activity against A2058 cells; format: cell-based; conditions: A2058, read-out: Anti-cancer IC50
# Outline: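 A2058 melanoma cells seeded at 2,000/well overnight, then exposed to a concentration range in serum-free MEM (gentamycin, NEAA, pyruvate, glutamine) for 24 h (cytotoxicity stated as after 72 h exposure). MTS-type tetrazolium reagent added for 1 h; absorbance at 485 nm; % survival versus medium and Triton X-100 controls.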
# [20] = Escherichia coli, read-out: Antimicrobial activity (MIC)
# [21] = Pseudomonas aeruginosa, read-out: Antimicrobial activity (MIC)
smiles,measurement,setting,value
"N=C(N)NCCCCN1C(=O)N(CCCCNC(=N)N)C(=O)C(Cc2ccc3ccccc3c2)(Cc2ccc3ccccc3c2)C1=O [8(iv), 1,1′-(4,4′-(5,5-bis(naphthalen-2-ylmethyl)-2,4,6-trioxodihydropyrimidine-1,3(2H,4H)-diyl)bis(butane-4,1-diyl))-diguanidine]",selectivity index (EC50/MIC),"[1]; RBC EC50 / MIC, S. aureus strain WIS",(17)
same,MIC,"[1]; Staphylococcus aureus, read-out: Antimicrobial activity (MIC)",8 µg/mL
same,selectivity index (EC50/MIC),[2]; RBC EC50 / MIC,(17)
same,MIC,"[2]; Staphylococcus aureus, IHT99040, read-out: Antimicrobial activity (MIC)",8 µg/mL
same,selectivity index (EC50/MIC),"[3]; RBC EC50 / MIC, S. aureus N315",(17)
same,MIC,"[3]; Staphylococcus aureus, N315, read-out: Antimicrobial activity (MIC)",8 µg/mL
same,selectivity index (EC50/MIC),"[4]; RBC EC50 / MIC, S. aureus strain 85/2082",(17)
same,MIC,"[4]; Staphylococcus aureus, 85/2082, read-out: Antimicrobial activity (MIC)",8 µg/mL
same,selectivity index (EC50/MIC),"[5]; RBC EC50 / MIC, S. aureus NCTC 10442",(17)
same,MIC,"[5]; Staphylococcus aureus, NCTC10442, read-out: Antimicrobial activity (MIC)",8 µg/mL
same,MIC,"[6]; Acinetobacter baumannii, K4435, read-out: Antimicrobial activity (MIC)",32 µg/mL
same,selectivity index (EC50/MIC),[6]; RBC EC50 / MIC,(4)
same,MIC,"[7]; Acinetobacter baumannii, K4742, read-out: Antimicrobial activity (MIC)",32 µg/mL
same,selectivity index (EC50/MIC),[7]; RBC EC50 / MIC,(4)
same,MIC,"[8]; Acinetobacter baumannii, K1221, read-out: Antimicrobial activity (MIC)",32 µg/mL
same,selectivity index (EC50/MIC),[8]; RBC EC50 / MIC,(4)
same,MIC,"[9]; Acinetobacter baumannii, K6358, 24 h, read-out: Antimicrobial activity (MIC)",32 µg/mL
same,selectivity index (EC50/MIC),[9]; RBC EC50 / MIC,(4)
same,MIC,"[10]; Acinetobacter baumannii, K5513, read-out: Antimicrobial activity (MIC)",32 µg/mL
same,selectivity index (EC50/MIC),[10]; RBC EC50 / MIC,(4)
same,MIC,[11],8 to 16 µg/mL
same,MIC,[12]; [20],8 µg/mL
same,selectivity index (EC50/MIC),[12]; RBC EC50 / MIC,(17)
same,MIC,[13]; [20],8 µg/mL
same,selectivity index (EC50/MIC),[13]; RBC EC50 / MIC,(17)
same,MIC,"[14]; Pseudomonas aeruginosa, K3473, read-out: Antimicrobial activity (MIC)",32 µg/mL
same,selectivity index (EC50/MIC),[14]; RBC EC50 / MIC,(4)
same,MIC,[15]; [21],32 µg/mL
same,selectivity index (EC50/MIC),[15]; RBC EC50 / MIC,(4)
same,MIC,"[16]; Pseudomonas aeruginosa, K347, read-out: Antimicrobial activity (MIC)",32 µg/mL
same,selectivity index (EC50/MIC),"[16]; RBC EC50 / MIC, P. aeruginosa K34-7",(4)
same,MIC,[17]; [21],32 µg/mL
same,selectivity index (EC50/MIC),[17]; RBC EC50 / MIC,(4)
same,MIC,"[18]; Pseudomonas aeruginosa, K4424, read-out: Antimicrobial activity (MIC)",32 µg/mL
same,selectivity index (EC50/MIC),[18]; RBC EC50 / MIC,(4)
same,IC50,[19],8 µg/mL
